# Assay results reported in patent EP1382597A2, “Steroid receptor modulator compounds and methods” (LIGAND PHARMACEUTICALS, INC., priority 1994, dated 1996).
# Read-outs that look alike come from different tables or passages of the source.
# Key:
# [1] = biological target: T1, human PR-B (Homo sapiens, UniProt P06401); experiment: Co-transfection assay, PR agonist activity; format: cell-based; conditions: for PR Agonist CV-1 Cells Efficacy (%): percent maximal response relative to reference agonist progesterone; for Emax: CV-1, read-out: PR Agonist CV-1 Cells Efficacy (%);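 as to all read-outs here: CV-1 cells (African green monkey kidney) co-transfected with receptor plasmid and hormone-responsive firefly luciferase reporter, agonism read as compound-dependent rise in luciferase signal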
# T1 construct: expressed in transfected cells; host or cells: CV-1 cells (African green monkey kidney fibroblasts), transient transfection
# T1 sequence (P06401 1-933): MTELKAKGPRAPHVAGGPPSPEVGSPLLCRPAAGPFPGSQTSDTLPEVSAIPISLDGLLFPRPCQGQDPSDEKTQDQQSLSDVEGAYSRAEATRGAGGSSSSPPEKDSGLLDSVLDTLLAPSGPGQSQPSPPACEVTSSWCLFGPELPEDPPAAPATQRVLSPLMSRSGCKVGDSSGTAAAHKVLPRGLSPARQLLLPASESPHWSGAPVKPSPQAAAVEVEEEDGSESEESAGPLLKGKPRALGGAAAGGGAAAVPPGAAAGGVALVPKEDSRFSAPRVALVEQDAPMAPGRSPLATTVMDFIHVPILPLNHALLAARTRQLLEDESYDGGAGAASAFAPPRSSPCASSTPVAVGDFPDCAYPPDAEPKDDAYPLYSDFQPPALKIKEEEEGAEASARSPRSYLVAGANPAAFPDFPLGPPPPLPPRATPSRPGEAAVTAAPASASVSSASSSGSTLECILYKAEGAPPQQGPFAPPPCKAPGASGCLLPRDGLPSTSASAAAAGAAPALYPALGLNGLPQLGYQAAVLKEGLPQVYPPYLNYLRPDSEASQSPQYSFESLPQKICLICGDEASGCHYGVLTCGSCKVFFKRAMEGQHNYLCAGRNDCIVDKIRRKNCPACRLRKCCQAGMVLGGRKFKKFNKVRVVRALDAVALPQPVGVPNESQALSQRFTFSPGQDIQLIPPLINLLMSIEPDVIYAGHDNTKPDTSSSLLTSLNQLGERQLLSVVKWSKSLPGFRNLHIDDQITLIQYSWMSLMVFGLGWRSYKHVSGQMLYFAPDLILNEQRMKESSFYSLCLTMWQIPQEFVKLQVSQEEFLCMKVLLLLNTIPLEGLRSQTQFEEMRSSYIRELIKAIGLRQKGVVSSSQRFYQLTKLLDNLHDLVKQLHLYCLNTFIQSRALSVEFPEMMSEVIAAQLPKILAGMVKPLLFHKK
# [2] = biological target: T2, human progesterone receptor A form (PR-A) (Homo sapiens, UniProt P06401); experiment: PR binding assay
# T2 sequence (P06401 1-933): T1 sequence (P06401 1-933)
# [3] = biological target: T1, human PR-B; experiment: Co-transfection assay, PR antagonist activity; format: cell-based; conditions: for Emax: CV-1, read-out: PR Antagonist CV-1 Cells Efficacy (%);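 as to all read-outs here: monkey kidney fibroblasts co-transfected with receptor expression plasmid and hormone-responsive luciferase reporter, antagonism read as reduced luciferase signal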
# [4] = test system: human AR; experiment: AR whole cell binding assay (COS-1 cells); conditions: whole COS-1 cells, competition with 1 nM 3H-DHT, three hours at 37°C
# [5] = biological target: T3, AR (Homo sapiens, UniProt P10275); experiment: Co-transfection assay, AR antagonist activity; format: cell-based
# T3 construct: expressed in transfected cells; host or cells: CV-1 cells, transient transfection
# [6] = biological target: T3, AR; experiment: Co-transfection assay, AR agonist activity; format: cell-based; conditions: CV-1 cells
# [7] = biological target: T4, GR (Homo sapiens, UniProt P04150); experiment: Co-transfection assay, GR antagonist activity; format: cell-based
# T4 construct: expressed in transfected cells; host or cells: CV-1 cells, transient transfection
# T4 sequence (P04150 1-777): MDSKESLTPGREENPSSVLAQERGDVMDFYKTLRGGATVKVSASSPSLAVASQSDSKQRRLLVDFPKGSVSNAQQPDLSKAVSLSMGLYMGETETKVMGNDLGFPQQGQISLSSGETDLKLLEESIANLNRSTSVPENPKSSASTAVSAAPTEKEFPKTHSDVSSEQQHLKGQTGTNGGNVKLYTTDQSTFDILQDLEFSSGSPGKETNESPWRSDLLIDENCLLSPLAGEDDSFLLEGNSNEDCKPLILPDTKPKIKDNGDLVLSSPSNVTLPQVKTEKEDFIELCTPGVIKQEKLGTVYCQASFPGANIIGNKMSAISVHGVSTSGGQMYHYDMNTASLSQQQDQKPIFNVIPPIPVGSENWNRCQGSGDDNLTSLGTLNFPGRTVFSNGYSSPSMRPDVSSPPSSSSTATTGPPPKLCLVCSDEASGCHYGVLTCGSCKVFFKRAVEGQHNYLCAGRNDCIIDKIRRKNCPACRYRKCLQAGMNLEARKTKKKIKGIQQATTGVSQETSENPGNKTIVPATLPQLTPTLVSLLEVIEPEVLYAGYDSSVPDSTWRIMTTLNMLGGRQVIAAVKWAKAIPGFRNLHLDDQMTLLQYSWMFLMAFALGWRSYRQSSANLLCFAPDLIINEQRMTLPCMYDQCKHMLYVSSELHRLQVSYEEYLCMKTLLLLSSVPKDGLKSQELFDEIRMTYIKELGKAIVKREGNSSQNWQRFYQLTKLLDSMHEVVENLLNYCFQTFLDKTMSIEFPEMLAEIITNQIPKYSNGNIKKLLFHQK
# [8] = biological target: T5, ER (Homo sapiens, UniProt P03372); experiment: Co-transfection assay, ER antagonist activity; format: cell-based
# T5 construct: expressed in transfected cells; host or cells: CV-1 cells, transient transfection, with MTV-ERE5-LUC reporter
# [9] = test system: PR; experiment: Uterine wet weight assay (PR agonist effectiveness); format: in vivo, Sprague-Dawely rats
# Description: J. Obstet. […] R.I. Dorfman, Academic Press, New York, New York, pp101-130 (1969), the disclosures of which are herein incorporated by reference. Four to five week old, ovariectomized, Sprague-Dawely rats (Harlan-Sprague-Dawely, Indianapolis, IN) were obtained 1 week after surgery and allowed to acclimate for an additional week after shipment.
# [10] = biological target: T6, MR (Homo sapiens, UniProt P08235); experiment: Co-transfection assay, MR antagonist activity; format: cell-based
# T6 construct: expressed in transfected cells; host or cells: CV-1 cells, transient transfection
# T6 sequence (P08235 1-984): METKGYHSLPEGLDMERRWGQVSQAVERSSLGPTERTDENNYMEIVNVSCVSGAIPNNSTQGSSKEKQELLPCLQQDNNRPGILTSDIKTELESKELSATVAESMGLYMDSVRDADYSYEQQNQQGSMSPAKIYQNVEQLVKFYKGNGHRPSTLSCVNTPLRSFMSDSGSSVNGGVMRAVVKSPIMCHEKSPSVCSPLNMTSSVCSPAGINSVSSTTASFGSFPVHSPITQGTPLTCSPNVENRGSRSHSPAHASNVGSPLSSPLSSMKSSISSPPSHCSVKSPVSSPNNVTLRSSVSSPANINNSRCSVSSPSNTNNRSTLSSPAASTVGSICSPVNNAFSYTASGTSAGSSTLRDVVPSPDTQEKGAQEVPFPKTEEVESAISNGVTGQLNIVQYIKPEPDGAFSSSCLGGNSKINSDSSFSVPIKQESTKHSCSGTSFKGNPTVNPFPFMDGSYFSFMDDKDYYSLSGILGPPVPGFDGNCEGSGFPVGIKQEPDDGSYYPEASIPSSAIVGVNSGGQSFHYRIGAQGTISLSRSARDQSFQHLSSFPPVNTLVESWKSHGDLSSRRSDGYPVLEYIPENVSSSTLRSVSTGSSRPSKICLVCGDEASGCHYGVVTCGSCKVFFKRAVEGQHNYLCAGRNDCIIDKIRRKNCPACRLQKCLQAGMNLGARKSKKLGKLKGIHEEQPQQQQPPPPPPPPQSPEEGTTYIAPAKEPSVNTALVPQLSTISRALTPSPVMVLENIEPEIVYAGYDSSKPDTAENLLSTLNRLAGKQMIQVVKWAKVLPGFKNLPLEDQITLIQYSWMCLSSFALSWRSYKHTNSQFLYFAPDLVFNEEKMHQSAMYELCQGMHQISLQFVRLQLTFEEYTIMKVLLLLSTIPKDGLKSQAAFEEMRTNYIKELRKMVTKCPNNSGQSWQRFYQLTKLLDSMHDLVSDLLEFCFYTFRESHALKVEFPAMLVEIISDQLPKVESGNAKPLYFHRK
# [11] = biological target: T5, ER; experiment: Co-transfection assay, ER agonist activity; format: cell-based
# [12] = test system: PR; experiment: Implantation assay (antiprogestin activity); format: in vivo, mice (ICR strain)
# Experimental: Mating was assumed to have taken place at 02.00 h, time 0.
# Compound 150 was dissolved in sesame oil (50 mg/mL) and kept at room temperature before use. […] Control animals received an equivuivalent volume of the control vehicle, sesame oil, alone.
# The animals were sacrificed, and autopsies were carried out at Day 8 of pregnancy, and numbers of implantation sites counted and recorded, and are shown in Table 7 below. Each group consisted of between 5 and 7 animals.
# [13] = CV-1 cells, agonist potency = EC50, read-out: PR Agonist CV-1 Cells Potency
# [14] = competition with [3H] progesterone, baculovirus extract, 4°C, 16 hours, read-out: PR Binding Ki
# T3 sequence (P10275 whole entry): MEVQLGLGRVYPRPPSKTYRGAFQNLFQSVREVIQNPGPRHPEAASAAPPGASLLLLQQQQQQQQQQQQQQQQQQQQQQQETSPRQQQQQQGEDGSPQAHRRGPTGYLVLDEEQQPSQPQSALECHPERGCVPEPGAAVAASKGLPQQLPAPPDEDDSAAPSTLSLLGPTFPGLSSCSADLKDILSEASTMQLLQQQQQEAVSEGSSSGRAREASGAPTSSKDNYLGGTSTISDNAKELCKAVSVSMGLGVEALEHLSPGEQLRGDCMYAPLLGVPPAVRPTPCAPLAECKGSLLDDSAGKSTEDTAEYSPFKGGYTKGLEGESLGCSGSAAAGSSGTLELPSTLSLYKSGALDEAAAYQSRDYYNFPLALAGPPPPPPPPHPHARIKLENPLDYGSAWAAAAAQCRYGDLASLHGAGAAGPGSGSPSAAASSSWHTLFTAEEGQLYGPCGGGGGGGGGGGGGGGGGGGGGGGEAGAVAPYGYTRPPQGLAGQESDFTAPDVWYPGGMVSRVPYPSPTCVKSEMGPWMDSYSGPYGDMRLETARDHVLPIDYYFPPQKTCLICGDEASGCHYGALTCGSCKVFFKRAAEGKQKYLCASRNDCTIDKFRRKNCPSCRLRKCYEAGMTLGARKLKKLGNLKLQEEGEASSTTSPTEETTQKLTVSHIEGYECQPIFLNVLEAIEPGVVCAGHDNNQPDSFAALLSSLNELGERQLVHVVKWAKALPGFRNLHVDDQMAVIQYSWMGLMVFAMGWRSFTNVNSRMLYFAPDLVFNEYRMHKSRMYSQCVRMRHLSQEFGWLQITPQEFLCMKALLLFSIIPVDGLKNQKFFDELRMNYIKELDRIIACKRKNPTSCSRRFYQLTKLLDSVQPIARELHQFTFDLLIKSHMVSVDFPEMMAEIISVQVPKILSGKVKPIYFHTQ
# T5 sequence (P03372 whole entry): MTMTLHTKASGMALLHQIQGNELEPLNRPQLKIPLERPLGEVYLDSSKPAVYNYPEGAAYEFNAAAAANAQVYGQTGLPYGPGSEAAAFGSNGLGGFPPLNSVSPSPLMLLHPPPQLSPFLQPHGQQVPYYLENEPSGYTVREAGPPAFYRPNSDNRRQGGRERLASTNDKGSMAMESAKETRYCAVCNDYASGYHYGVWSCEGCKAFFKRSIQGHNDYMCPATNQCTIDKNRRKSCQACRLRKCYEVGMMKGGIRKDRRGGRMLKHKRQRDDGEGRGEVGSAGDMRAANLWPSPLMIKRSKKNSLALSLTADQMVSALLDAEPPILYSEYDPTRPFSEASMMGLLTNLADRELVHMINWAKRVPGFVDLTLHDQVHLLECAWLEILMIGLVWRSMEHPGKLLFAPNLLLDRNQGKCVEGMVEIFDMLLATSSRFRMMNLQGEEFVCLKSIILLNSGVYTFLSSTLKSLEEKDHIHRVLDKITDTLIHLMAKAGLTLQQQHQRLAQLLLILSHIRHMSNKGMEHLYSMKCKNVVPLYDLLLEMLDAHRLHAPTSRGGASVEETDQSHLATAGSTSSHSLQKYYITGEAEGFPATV
compound,measurement,setting,value
"(R/S-4l,5l)-3-Benzenzylidene-5-(4-chlorophenyl)-1,2,3,4-tetrahydro-2,2,4-trimethyl-5H-chromeno[3,4-f]quinoline [Compound 401]",EC50,[1]; [13],0.6 µM
same,PR Agonist CV-1 Cells Efficacy (%),[1]; CV-1 cells,43%
same,Ki,[2]; [14],150 nM
same,IC50,"[3]; CV-1 cells, antagonist potency = IC50, progesterone at its EC50, read-out: PR Antagonist CV-1 Cells Potency",> 10000 nM
same,PR Antagonist CV-1 Cells Efficacy (%),"[3]; CV-1 cells, percent maximal inhibition, progesterone at its EC50","na (na = not active (i.e. efficacy of <20 and potency of >10,000))"
"8-(4-Chlorobenzoyl)-5-trifluoromethyl-7-pyridono[5,6-e]indoline [Compound 420]",Ki,[4],346 nM
same,IC50,"[5]; CV-1 cells, antagonist potency = IC50, DHT at its EC50, read-out: AR Antagonist CV-1 Cells Potency",32 nM
same,AR Antagonist CV-1 Cells Efficacy (%),"[5]; CV-1 cells, percent maximal inhibition, DHT at its EC50",80%
same,EC50,[6]; agonist potency = EC50,2100 nM
same,AR Agonist CV-1 Cells Efficacy (%),[6]; relative to reference agonist DHT,40%
"CC1=CC(C)(C)Nc2ccc(-c3cccc(F)c3F)cc21 [Compound 152, 6-(2,3-Difluorophenyl)-1,2-dihydro-2,2,4-trimethylquinoline]",EC50,[1],> 10 µM
same,Emax,[1],< 20%
same,Ki,[2],53 nM
same,IC50,[3],130 nM
same,Emax,[3],82%
"8-Bromo-1,2-dihydro-2,2,4-trimethylindeno[1,2-g]quinoline [Compound 117]",EC50,[1]; [13],> 10 µM
same,PR Agonist CV-1 Cells Efficacy (%),[1]; CV-1 cells,"na (na = not active (i.e. efficacy of <20 and potency of >10,000))"
same,Ki,[2]; [14],> 10000 nM
"CC1=CC(C)(C)Nc2ccc3c(c21)C(c1ccc(Cl)cc1)Oc1ccccc1-3 (racemic) [Compound 163, (R/S)-5-(4-Chlorophenyl)-1,2-dihydro-2,2,4-trimethyl-5H-chromeno[3,4-f]quinoline]",IC50,[7],1330 nM
same,IC50,[8],2150 nM
same,Emax,[1],77%
same,Mean Uterine Wet Weight,"[9]; 3.0 mg/rat oral once a day for three days in the presence of estrone (10 µg/day, subcutaneous)",125 mg
same,effect on mean uterine wet weight,"[9]; co-administered with estrone, dosage of 3 mg/rat",decreased by approximately half
same,Emax,[3],45%
same,IC50,[10],1450 nM
same,EC50,[11],> 10 µM
"CC1=CC(C)(C)Nc2ccc(-c3cccc(C#N)c3)cc21 [Compound 150, 6-(3-Cyanophenyl)-1,2-dihydro-2,2,4-trimethylquinoline]",IC50,[7],2700 nM
same,IC50,[5],140 nM
same,Percent Pregnancy Rate,"[12]; 5.0 mg/day oral, days 2 to 4 of pregnancy, mice",0
same,effect on pregnancy rate with simultaneous PR agonist,[12]; simultaneous injection of R5020 (promegestone) at 1.0 mg per day,reversed to the control level
same,IC50,[8],> 10000 nM
same,Emax,[1],24%
same,Emax,[3],91%
same,IC50,[10],1900 nM
"C[C@H]1C(=O)C(C)(C)Nc2ccc3c(c21)O[C@H](c1ccccc1)c1ccccc1-3 (relative stereo) [Compound 391, (R/S-4l,6l)-1,2,3,4-Tetrahydro-2,2,4-trimethyl-6-phenyl-5H-isochromeno[3,4-f]-3-quinolinone]",EC50,[1],> 10 µM
same,Emax,[1],< 20%
same,Ki,[2],187 nM
same,IC50,[3],120 nM
same,Emax,[3],65%
